Molecules are shown by their SMILES.

In series [1] the test system is Influenza A/Puerto Rico/8/34 (H1N1) virus. As to the kind of experiment: microbe, parasite or virus in culture. The class given is cell-based.
The nature of series [2]: in vitro. The note with it: dog.

Take `CCC(CC)O[C@@H]1C=C(C(=O)O)C[C@H](N)[C@H]1NC(C)=O` [Oseltamivir carboxylate]: in series [1], the “SI, selectivity index, the ratio of CC50 to IC50” value is reported as above 667. Also, the IC50 in series [1] (Influenza A virus, H1N1, MDCK, 72 h, read-out: IC50, inhibitory concentration causing a 50% decrease in virus-induced cell death) is 300 ± 20 nM. In addition, the CC50 at 72 h in series [2] was above 200000 nM.

(Values after article PMC10053623, “Water-Soluble Fullerene C60 Derivatives Are Effective Inhibitors of Influenza Virus Replication” (Microorganisms, 2023).)
